Data taken from patent US20140004243A1, “SALTY TASTE ENHANCER” (AJINOMOTO CO., INC., priority 2011, published 2014).

System: human
Experiment: Sensory evaluation of salty taste enhancing activity of compound of the present invention in human
Assay type: in vivo
Conditions: n=5; for salty taste enhancing rate (fold) middle and after taste: after 2 seconds; for salty taste enhancing rate (fold) initial taste: first 2 seconds
Description: The intensity of a salty taste enhancing activity and the strength of a bitter taste were examined by a quantitative sensory evaluation test for the compound of the present invention (compounds of Examples 11 and 51).
The quantitative sensory evaluation test was performed as follows. Distilled water containing sodium chloride (0.8 g/dl) was mixed with capsazepine as a sample at 0.001 g/dl, or the compound of Example 11 or Example 51 at 0.0001 to 0.001 g/dl, and the level of a salty taste enhancing activity was measured. Distilled water containing 0.8 g/dl of sodium chloride was used as a control, and distilled water containing 0.9 g/dl or 1.0 g/dl of sodium chloride was used as a comparison target. Using a linear measurement method, a straight line showing 1.0-fold (0.8 g/dl), 1.13-fold (0.9 g/dl), 1.25-fold (1.0 g/dl) positions of sodium chloride concentration was drawn and the position showing the strength of the corresponding salty taste was put down thereon. As for the strength of a bitter taste, using the bitter taste of a solution obtained by mixing distilled water containing sodium chloride (0.8 g/dl) with capsazepine at 0.0001 to 0.001 g/dl as the standard, the strength of the bitter taste of the solution obtained by mixing the compound of Example 11 or Example 51 at 0.0001 to 0.001 g/dl was relatively evaluated by comparison. The points were marked based on 0 point for no bitter taste, and 5.0 points for the strength of the bitter taste of a solution containing 0.001 g/dl capsazepine. The test was performed at n=5. […] The “initial taste” means the evaluation of the strength of the salty taste for 2 seconds after placing in the mouth, and the “middle and after taste” means a combination of middle taste and after taste, which is the evaluation of the strength of the salty taste after 2 seconds from placing in the mouth.

[1] = sample 0.0001 g/dl in 0.8 g/dl sodium chloride
[2] = sample 0.0005 g/dl in 0.8 g/dl sodium chloride
[3] = sample 0.001 g/dl in 0.8 g/dl sodium chloride

Row | Compound | salty taste enhancing rate (fold) middle and after taste [1] [fold] | salty taste enhancing rate (fold) initial taste [1] [fold] | salty taste enhancing rate (fold) middle and after taste [2] [fold] | salty taste enhancing rate (fold) initial taste [2] [fold] | salty taste enhancing rate (fold) middle and after taste [3] [fold] | salty taste enhancing rate (fold) initial taste [3] [fold]
1 | OC[C@@H](NC(=S)NCCc1ccccc1)c1ccccc1 [Example 51] | 1.11 | 1.09 | 1.17 | 1.13 | 1.17 | 1.17
2 | Oc1cc2c(cc1O)CN(C(=S)NCCc1ccc(Cl)cc1)CCC2 [capsazepine] | 1.11 | 1.11 |  |  |  | 
3 | C[C@@H](NC(=S)NCCc1ccccc1)c1ccccc1 [Example 11] | 1.10 | 1.10 | 1.14 | 1.15 | 1.14 | 1.13
